Drawing on paper PMC6934184, “Selective DNA-PKcs inhibition extends the therapeutic index of localized radiotherapy and chemotherapy” (The Journal of Clinical Investigation, 2019), this text covers inhibition for one molecule.

Structures are written as SMILES.

The target in the assay is T1, MAPK14 (p38 alpha) (Homo sapiens, UniProt Q16539).
T1 construct: purchased Thermo Fisher Scientific (Life Technologies) SelectScreen
As to the kind of experiment: SelectScreen Z'LYTE. Format: biochemical. The method in brief:
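SelectScreen broad panel; activity (Z'LYTE, Adapta) plus binding formats. ATP: Km app for CSF1R Z'LYTE; 10 for CAMK1 Adapta. Readout = % per kinase.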

T1 sequence (Q16539 whole entry): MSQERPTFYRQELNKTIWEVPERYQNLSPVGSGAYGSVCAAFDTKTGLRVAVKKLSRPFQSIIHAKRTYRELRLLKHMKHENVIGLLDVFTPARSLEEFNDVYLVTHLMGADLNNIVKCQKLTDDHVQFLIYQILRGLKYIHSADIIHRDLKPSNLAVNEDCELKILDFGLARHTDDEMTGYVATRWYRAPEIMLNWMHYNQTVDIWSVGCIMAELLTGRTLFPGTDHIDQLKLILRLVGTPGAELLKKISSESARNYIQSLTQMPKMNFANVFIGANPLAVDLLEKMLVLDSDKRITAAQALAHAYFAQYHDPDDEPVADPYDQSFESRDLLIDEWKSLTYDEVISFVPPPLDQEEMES

A word on the inhibition: it is the change of the read-out against control, counted positive when it falls. Low values mean a response near the control, high ones a response far below the control. As for `CN(C(=O)CN1CCOCC1)c1ccc2sc3c(-c4cccc5c(=O)cc(N6CC7CCC(C6)O7)oc45)cccc3c2c1` [NU5455], at 1 µM the inhibition was 9.7%.
